How the values were obtained:
[1] = system: plasma C-Reactive Protein (CRP) and procalcitonin; details: ref [7], [8], [9]; cited from earlier work
[2] = system: SARS-CoV-2 virus; experiment: Antiviral potentiality against SARS-CoV-2; format: cell-based; details: isolate of SARS-CoV-2

## N[C@@H](CC(=O)N1CCn2c(nnc2C(F)(F)F)C1)Cc1cc(F)c(F)cc1F [SIT, Sitagliptin]
[1]
  possible immuno-modulatory effect: plasma CRP and procalcitonin: plasma C-Reactive Protein (CRP) and procalcitonin reduction
[2]
  antiviral activity against SARS-CoV-2 in words: have antiviral activity against an isolate of SARS-CoV-2
